Here are results for two molecules from publication PMC8674921 (ACS Omega, 2021).

Assay [1] relates to hMAO-A. The conditions noted are these: read-out: IC50 hMAO-A; selective hMAO-A inhibition; cited from earlier work.
The target in assay [2] is GABAA receptors. The conditions noted are these: read-out: EC50 GABAA receptors modulating effect; cited from earlier work.
Assay [3] addresses human D3R (CHO-D3R membrane homogenates) (Homo sapiens, UniProt P35462). Description: Antagonist radioligand binding assay, D3 receptor. The note with it: read-out: % inhibition of control-specific binding.
The target in assay [4] is T1, recombinant hMAO-B (Homo sapiens, UniProt P27338).
T1 sequence (P27338 1-520): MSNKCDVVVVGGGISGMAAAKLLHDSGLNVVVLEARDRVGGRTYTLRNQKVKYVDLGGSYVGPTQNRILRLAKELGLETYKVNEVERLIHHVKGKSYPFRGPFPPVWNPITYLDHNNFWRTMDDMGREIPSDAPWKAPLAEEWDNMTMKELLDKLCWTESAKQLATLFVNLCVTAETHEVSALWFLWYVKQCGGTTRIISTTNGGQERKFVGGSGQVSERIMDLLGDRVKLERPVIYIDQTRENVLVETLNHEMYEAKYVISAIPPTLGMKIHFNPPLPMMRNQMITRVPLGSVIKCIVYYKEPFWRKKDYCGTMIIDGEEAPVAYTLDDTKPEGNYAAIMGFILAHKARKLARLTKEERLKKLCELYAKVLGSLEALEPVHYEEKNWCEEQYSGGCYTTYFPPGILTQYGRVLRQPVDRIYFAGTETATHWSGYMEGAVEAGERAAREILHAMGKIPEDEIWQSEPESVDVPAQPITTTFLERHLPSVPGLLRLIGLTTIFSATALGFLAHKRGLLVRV
Description: hMAO-B inhibitory assay. In kind it is biochemical.

Assay [5] deals with BACE 1. The conditions noted are these: read-out: IC50 BACE 1; cited from earlier work.
In assay [6] the target is hD2L receptor (CHO-D2LR cells) (Homo sapiens, UniProt P14416). Description: Functional GPCR assay, intracellular calcium flux, hD2L. Type of assay: cell-based.
Sequence of hD2L receptor (CHO-D2LR cells) (P14416 whole entry): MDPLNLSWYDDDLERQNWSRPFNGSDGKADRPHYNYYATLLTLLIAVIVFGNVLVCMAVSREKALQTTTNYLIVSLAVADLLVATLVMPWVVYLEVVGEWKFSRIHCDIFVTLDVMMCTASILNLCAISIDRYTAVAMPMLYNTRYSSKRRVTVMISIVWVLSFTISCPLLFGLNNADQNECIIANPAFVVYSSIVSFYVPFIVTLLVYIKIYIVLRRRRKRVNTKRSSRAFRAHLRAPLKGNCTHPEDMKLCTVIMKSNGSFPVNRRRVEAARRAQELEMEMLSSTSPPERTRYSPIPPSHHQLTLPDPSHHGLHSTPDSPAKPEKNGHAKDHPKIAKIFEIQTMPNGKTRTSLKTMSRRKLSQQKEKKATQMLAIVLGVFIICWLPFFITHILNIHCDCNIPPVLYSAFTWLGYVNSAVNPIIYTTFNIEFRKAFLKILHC
Assay [7] concerns BChE. The note with it: read-out: IC50 BChE; cited from earlier work.
In assay [8] the target is human D1R (recombinant CHO-D1R membrane homogenates) (Homo sapiens, UniProt P21728). Description: Antagonist radioligand binding assay, D1 receptor. The conditions noted are these: 50 μM kurarinone, [3H]SCH-23390, mean of duplicate.
Sequence of human D1R (recombinant CHO-D1R membrane homogenates) (P21728 whole entry): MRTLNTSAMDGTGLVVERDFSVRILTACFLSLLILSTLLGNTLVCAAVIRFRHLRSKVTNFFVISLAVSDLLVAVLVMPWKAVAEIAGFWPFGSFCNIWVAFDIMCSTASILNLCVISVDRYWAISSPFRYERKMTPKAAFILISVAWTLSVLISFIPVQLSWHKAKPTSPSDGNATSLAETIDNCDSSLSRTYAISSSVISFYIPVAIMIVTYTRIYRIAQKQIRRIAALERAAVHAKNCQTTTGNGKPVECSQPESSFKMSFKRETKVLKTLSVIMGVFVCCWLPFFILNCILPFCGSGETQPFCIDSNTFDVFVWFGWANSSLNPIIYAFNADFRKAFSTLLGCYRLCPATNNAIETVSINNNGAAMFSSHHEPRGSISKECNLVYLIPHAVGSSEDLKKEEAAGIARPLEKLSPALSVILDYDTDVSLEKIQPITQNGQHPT
Assay [9] addresses hD1 receptor (CHO-D1R cells) (Homo sapiens, UniProt P21728). Put plainly: Functional GPCR assay, cAMP level. Type of assay: cell-based. (In general: Cyclic AMP is a second messenger, typically raised through Gs and lowered through Gi signalling.)
Assay [10] deals with T2, h5-HT1A receptor (Ba/F3-5-HT1AR cells) (Homo sapiens, UniProt P08908).
T2 sequence (P08908 1-422): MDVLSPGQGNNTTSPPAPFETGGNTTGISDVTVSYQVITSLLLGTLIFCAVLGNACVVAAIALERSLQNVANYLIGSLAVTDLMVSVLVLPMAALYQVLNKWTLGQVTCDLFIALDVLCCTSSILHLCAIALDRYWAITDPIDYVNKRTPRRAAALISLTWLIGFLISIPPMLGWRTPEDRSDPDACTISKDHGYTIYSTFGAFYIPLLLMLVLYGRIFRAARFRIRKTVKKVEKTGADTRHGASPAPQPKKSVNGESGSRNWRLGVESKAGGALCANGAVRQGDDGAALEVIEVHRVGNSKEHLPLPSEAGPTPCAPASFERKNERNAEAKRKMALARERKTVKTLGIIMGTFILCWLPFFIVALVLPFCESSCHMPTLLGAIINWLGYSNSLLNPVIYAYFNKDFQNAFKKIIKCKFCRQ
Put plainly: Functional GPCR assay, intracellular calcium mobilization, h5-HT1A.

Assay [11] concerns the target human V1AR (recombinant CHO-V1AR membrane homogenates) (Homo sapiens, UniProt P37288). Description: Agonist radioligand binding assay, vasopressin V1A receptor. The note with it: read-out: % inhibition of control-specific binding.
For assay [12], the target named is human D2LR (transfected HEK-293 membrane homogenates) (Homo sapiens, UniProt P14416). Description: Antagonist radioligand binding assay, D2L receptor. The conditions noted are these: 50 μM kurarinone, [3H]methylspiperone, mean of duplicate.
Sequence of human D2LR (transfected HEK-293 membrane homogenates) (P14416 whole entry): as the sequence (P14416 whole entry) above
The subject of assay [13] is AChE. The conditions noted are these: read-out: IC50 AChE; cited from earlier work.
Assay [14] has as its target T3, recombinant hMAO-A (Homo sapiens, UniProt P21397).
T3 sequence (P21397 1-527): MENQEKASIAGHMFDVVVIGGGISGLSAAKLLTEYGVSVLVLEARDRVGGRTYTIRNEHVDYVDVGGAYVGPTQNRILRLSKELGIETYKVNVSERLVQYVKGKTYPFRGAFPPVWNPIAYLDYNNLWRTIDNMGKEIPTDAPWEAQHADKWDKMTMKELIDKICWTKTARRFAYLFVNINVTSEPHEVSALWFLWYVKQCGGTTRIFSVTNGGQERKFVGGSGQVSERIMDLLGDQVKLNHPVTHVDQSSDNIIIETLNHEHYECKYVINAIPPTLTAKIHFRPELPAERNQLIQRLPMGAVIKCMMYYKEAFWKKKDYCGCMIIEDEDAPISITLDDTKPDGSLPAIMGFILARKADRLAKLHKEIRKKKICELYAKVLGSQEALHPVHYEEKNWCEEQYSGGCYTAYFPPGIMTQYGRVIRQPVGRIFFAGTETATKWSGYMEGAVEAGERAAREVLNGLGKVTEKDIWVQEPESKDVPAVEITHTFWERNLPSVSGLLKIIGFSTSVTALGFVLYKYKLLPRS
Put plainly: hMAO-A inhibitory assay. In kind it is biochemical.

The target of assay [15] is T4, hD4 receptor (CHO-D4R cells) (Homo sapiens, UniProt P21917).
T4 sequence (P21917 1-419): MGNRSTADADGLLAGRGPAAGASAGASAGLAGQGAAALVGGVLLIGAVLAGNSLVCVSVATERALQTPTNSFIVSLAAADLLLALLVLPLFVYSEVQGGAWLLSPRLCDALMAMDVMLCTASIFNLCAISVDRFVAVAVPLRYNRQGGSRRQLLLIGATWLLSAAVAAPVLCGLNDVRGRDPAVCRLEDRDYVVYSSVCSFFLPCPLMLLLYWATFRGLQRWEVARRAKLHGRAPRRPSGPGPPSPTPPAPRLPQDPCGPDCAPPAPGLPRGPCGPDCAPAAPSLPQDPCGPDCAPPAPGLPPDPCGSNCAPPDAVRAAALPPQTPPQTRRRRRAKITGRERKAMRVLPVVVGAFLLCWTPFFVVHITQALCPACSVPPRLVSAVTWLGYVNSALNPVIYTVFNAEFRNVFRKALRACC
Description: Functional GPCR assay, cAMP level. In kind it is cell-based.

Assay [16] concerns the target T5, human D4R (CHO-D4R membrane homogenates) (Homo sapiens, UniProt P21917).
T5 sequence (P21917 1-419): T4 sequence (P21917 1-419)
Description: Antagonist radioligand binding assay, D4 receptor. The note with it: 50 μM kurarinone, [3H]methylspiperone, mean of duplicate.

Setting [17] is: read-out: % inhibition of control agonist effect.

A value given as a limit tells only on which side of the number the result lay.

In general, IC50 refers to the concentration that gives 50% inhibition. Usually EC50 stands for the midpoint of the concentration-response curve. The term inhibition denotes the change of the read-out against control, counted positive when it falls. By Ki is commonly meant a measure of affinity in units of concentration, obtained from inhibition or displacement.

Sequence of hD1 receptor (CHO-D1R cells) (P21728 whole entry): as the sequence (P21728 whole entry) above
Sequence of human D3R (CHO-D3R membrane homogenates) (P35462 whole entry): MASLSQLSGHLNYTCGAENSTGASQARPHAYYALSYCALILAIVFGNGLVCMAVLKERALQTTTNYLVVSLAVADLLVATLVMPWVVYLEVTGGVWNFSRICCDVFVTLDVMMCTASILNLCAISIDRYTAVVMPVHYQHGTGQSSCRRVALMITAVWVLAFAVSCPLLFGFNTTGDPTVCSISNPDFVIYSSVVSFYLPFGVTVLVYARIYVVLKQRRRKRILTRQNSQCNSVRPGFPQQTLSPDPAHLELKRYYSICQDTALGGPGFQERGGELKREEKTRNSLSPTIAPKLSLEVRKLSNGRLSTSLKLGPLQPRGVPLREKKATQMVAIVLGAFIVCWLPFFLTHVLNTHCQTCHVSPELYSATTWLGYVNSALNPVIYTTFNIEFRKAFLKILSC
Sequence of human V1AR (recombinant CHO-V1AR membrane homogenates) (P37288 whole entry): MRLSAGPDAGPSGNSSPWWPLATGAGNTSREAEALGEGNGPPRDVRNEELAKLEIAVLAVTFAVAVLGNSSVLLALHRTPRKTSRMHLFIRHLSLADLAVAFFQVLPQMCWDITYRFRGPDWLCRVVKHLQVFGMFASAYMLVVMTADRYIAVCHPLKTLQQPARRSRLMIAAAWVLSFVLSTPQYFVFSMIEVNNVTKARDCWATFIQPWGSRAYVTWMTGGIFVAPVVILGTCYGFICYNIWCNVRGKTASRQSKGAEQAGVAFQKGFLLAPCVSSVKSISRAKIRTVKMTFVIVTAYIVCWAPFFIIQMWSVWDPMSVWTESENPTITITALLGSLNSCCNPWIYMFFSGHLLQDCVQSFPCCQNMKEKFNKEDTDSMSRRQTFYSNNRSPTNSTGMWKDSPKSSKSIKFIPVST

With `C=C(C)[C@H](CC=C(C)C)Cc1c(O)cc(O)c2c1O[C@H](c1ccc(O)cc1O)CC2=O` [sophoraflavone G], the IC50 in assay [1] is 38.8 ± 1.1 µM.
For `C=C(C)[C@H](CC=C(C)C)Cc1c(O)cc(OC)c2c1O[C@H](c1ccc(O)cc1O)CC2=O` [kurarinone], the EC50 in assay [2] was 8.1 ± 1.4 µM; in assay [6] (EC50 (50% of control agonist effect), hD2L, agonist mode, mean ± S.D., duplicate) it was 22.4 ± 3.46 µM; in assay [15] it was 71.3 ± 4.94 µM. Besides, the values for the inhibition at 50 µM in assay [3] and in [11] were 49.2% and 47.6%, respectively. Moreover, the IC50 in assay [4] is 198 ± 12.7 µM; in assay [5], 24.5 ± 1.73 µM; in [7], 5.29 ± 0.67 µM; in assay [13] it was 74.3 ± 7.85 µM; in assay [14], 186 ± 6.17 µM. Further, the “Inhibition type hMAO-B” value in [4] (Lineweaver-Burk plots) is listed as “mixed”. Further, the “agonist response in antagonist mode assay” value in assay [6] (100 μM, D2LR, antagonist mode) is given as “at least 25%”. Moreover, the “% stimulation of control agonist effect” value in [6] (100 μM, hD2L, agonist mode, control 10 μM DA) came to 113 ± 28.9%; in [9] (100 μM, hD1, agonist mode, control 10 μM DA), 0.25 ± 0.64%; in [10] (100 μM, h5-HT1A, agonist mode, control 0.625 μM 5-HT), 17.8 ± 1.13%; in assay [15] (100 μM, hD4, agonist mode, control 1000 nm DA), 71.7 ± 6.36%. In addition, the “agonist or agonist-like effect flag in antagonist mode” value in assay [6] (100 μM, hD2L, antagonist mode) is reported as “AGO (the test compound induced at least 25% agonist or agonist-like effect at this concentration)”. The inhibition at 100 µM in [6] (setting [17]) is 43.8%; in [9] (setting [17]), 98.5%; in assay [10] (setting [17]) it was 30.3%; in assay [15] (setting [17]), -4.2%. Besides, the “% inhibition of control-specific binding” value in [8] is on record as more than 70%; in assay [8] (listed as Kurarinone), 99.1%; in assay [12], 78.5%; in assay [16], 71.1%. Further, the inhibition constant (Ki) in assay [14] (Ki hMAO-A, Dixon and secondary plots) amounted to 65.1 ± 3.53 µM. Also, the “Inhibition type hMAO-A” value in assay [14] (Lineweaver-Burk plots) is “competitive”.
